According to the NIST ThermoML archive (doi:10.1021/je900048r):
± gives the expanded uncertainty stated by the source.

Test: xn = mol fraction of the nth substance listed
Conditions: Liquid, Other PVT measurement

CCCCn1cc[n+](C)c1.F[B-](F)(F)F [1-butyl-3-methylimidazolium tetrafluoroborate] + c1ccccc1
mass density [kg/m3]
Conditions	x1 = 0.5	x1 = 0.5999	x1 = 0.7001	x1 = 0.8	x1 = 0.8999	x1 = 1
313.15 K, 200 kPa	1111 ± 11	1129 ± 11	1145 ± 12	1158 ± 12	1172 ± 12	1185 ± 12
313.15 K, 600 kPa	1111 ± 11	1130 ± 11	1145 ± 12	1158 ± 12	1172 ± 12	1186 ± 12
313.15 K, 1000 kPa	1111 ± 11	1130 ± 11	1146 ± 12	1158 ± 12	1173 ± 12	1186 ± 12
313.15 K, 1400 kPa	1111 ± 11	1131 ± 11	1146 ± 12	1159 ± 12	1173 ± 12	1186 ± 12
313.15 K, 1800 kPa	1111 ± 11	1131 ± 11	1147 ± 12	1159 ± 12	1173 ± 12	1187 ± 12
313.15 K, 2000 kPa	1111 ± 11	1132 ± 11	1147 ± 12	1159 ± 12	1173 ± 12	1187 ± 12
353.15 K, 200 kPa	1082 ± 11	1102 ± 11	1118 ± 11	1131 ± 11	1145 ± 12	1159 ± 12
353.15 K, 600 kPa	1082 ± 11	1103 ± 11	1118 ± 11	1131 ± 11	1145 ± 12	1160 ± 12
353.15 K, 1000 kPa	1083 ± 11	1103 ± 11	1118 ± 11	1131 ± 11	1145 ± 12	1160 ± 12
353.15 K, 1400 kPa	1083 ± 11	1103 ± 11	1118 ± 11	1132 ± 11	1146 ± 12	1160 ± 12
353.15 K, 1800 kPa	1084 ± 11	1104 ± 11	1119 ± 11	1132 ± 11	1146 ± 12	1161 ± 12
353.15 K, 2000 kPa	1084 ± 11	1104 ± 11	1119 ± 11	1132 ± 11	1146 ± 12	1161 ± 12
393.15 K, 600 kPa	1055 ± 11	1076 ± 11	1092 ± 11	1106 ± 11	1120 ± 11	1135 ± 11
393.15 K, 1000 kPa	1055 ± 11	1076 ± 11	1092 ± 11	1106 ± 11	1120 ± 11	1135 ± 11
393.15 K, 1400 kPa	1055 ± 11	1077 ± 11	1092 ± 11	1106 ± 11	1120 ± 11	1135 ± 11
393.15 K, 1800 kPa	1056 ± 11	1077 ± 11	1092 ± 11	1106 ± 11	1121 ± 11	1136 ± 11
393.15 K, 2000 kPa	1056 ± 11	1078 ± 11	1093 ± 11	1106 ± 11	1121 ± 11	1136 ± 11
433.15 K, 1400 kPa	1028 ± 10	1050 ± 11	1066 ± 11	1080 ± 11	1096 ± 11	1112 ± 11
433.15 K, 1800 kPa	1029 ± 10	1050 ± 11	1067 ± 11	1081 ± 11	1096 ± 11	1113 ± 11
433.15 K, 2000 kPa	1029 ± 10	1051 ± 11	1067 ± 11	1081 ± 11	1096 ± 11	1113 ± 11
